The values below come from patent US11260127B2, “Mesoporous silica nanoparticles for diagnostic and therapeutic applications” (CASE WESTERN RESERVE UNIVERSITY, priority 2017, dated 2022).

This data set in a line: In vitro RF-triggered drug release from Fe@MSN nanoparticles. The following applies: for drug release rate of two drugs compared: release from Fe@MSN under the same RF field. The data set is classed as physicochemical. The protocol:
FIGS. 2(A-E) illustrate in vitro evaluation of radiofrequency (RF)-triggered drug release from Fe@MSN nanoparticles. (A) The release of DOX was triggered from Fe@MSN particles using an RF field at different frequencies (1, 20, 50 and 380 kHz; n=4). […] (C) Effect of elevated temperature on the drug release from Fe@MSN particles with an incubation time of 60 min (n=4; unpaired t-test P<0.0001). (D) Drug release from Fe@MSN at different particle concentration under an RF field at 50 kHz. (E) Drug release from Fe@MSN particles at different depths in the RF source (RF field: 50 kHz).
Further, when the temperature of the Fe@MSN suspension was elevated to 60° C. for 60 min by external heating, negligible drug was released ([…]). These two findings indicate that the triggered release mechanism is not based on hyperthermic effects applications, thereby minimizing the role of Neel relaxation phenomenon in RF-triggered drug release from the Fe@MSN nanoparticles.
Similar drug release rate per nanochain particle was observed from suspensions of dramatically different concentrations of Fe@MSN nanoparticles when subjected to the same RF field.
The RF-triggered drug release is nearly independent of the type of drug molecules.

For `CC(=N)NCc1cccc(CN)c1` [1400 W], the “drug release rate of two drugs compared” value is listed as “almost identical”.

Consider `COc1cccc2c1C(=O)c1c(O)c3c(c(O)c1C2=O)C[C@@](O)(C(=O)CO)C[C@@H]3O[C@H]1C[C@H](N)[C@H](O)[C@H](C)O1` [DOX, doxorubicin], for which the “drug release rate of two drugs compared” value was “almost identical”. For the setting “RF field, very low Fe@MSN concentration, 1 or 10 kHz”, the “RF-triggered drug release rate” value is recorded as “triggered in a controlled manner”.
